Experimental data taken from patent US20230348483A1, “PREPARATION METHOD FOR (S)-2-AMINO-3-(4-(2,3-DIMETHYLPYRIDIN-4-YL)PHENYL)METHYL PROPIONATE DIACID SALT” (Hangzhou Zhongmei Huadong Pharmaceutical Co., Ltd., priority 2020, published 2023).

Tests used:
[1] = Stability test of salt forms at temperature 40° C. and humidity 75% (HPLC chemical purity, physical properties); format: physicochemical; conditions: for Appearance / Hygroscopicity / Purity (%): 40° C./75% placement for 1 day; for Purity (%) / Initial purity: chemical purity by HPLC; for Initial purity: before placement
Experimental: Compare the properties of the desired salts of compound V, includes but not limits to as herein oxalate or phosphate, to hydrochloride. Conduct the stability test under the condition of temperature 40° C. and humidity 75%, measure the chemical purity by HPLC and observe the physical properties.

[2] = Hygroscopicity and deterioration of compound IV as found by the researchers; format: physicochemical; conditions: solid, storage and transport

| SMILES | Appearance [1] | Hygroscopicity [1] | Purity (%) [1] [%] | Initial purity [1] | Deterioration (storage stability) [2] | Hygroscopicity [2] |
| --- | --- | --- | --- | --- | --- | --- |
| COC(=O)[C@@H](N)Cc1ccc(-c2ccnc(C)c2C)cc1.Cl.Cl [Hydrochloride, methyl (S)-2-amino-3-[4-(2,3-dimethylpyridin-4-yl)-phenyl]-propionate dihydrochloride] | Yellow solid | Strong | 87.5 | 95.1 | easily to be deteriorated | highly hygroscopic |
| COC(=O)[C@@H](N)Cc1ccc(-c2ccnc(C)c2C)cc1.O=C(O)C(=O)O.O=C(O)C(=O)O [Oxalate, methyl (S)-2-amino-3-[4-(2,3-dimethylpyridin-4-yl)-phenyl]-propionate diacid salt] | White powder | Almost none | 99.0 | 99.1 |  |  |
| COC(=O)[C@@H](N)Cc1ccc(-c2ccnc(C)c2C)cc1.O=C(O)C(=O)O.O=C(O)C(=O)O [Phosphate, methyl (S)-2-amino-3-[4-(2,3-dimethylpyridin-4-yl)-phenyl]-propionate diacid salt] | White to light | Slight | 96.1 | 98.5 |  |  |
